Measured values from US7223424B2, “Compositions and methods for prostate and kidney health and disorders, an herbal preparation” (Integrated Chinese Medicine Holdings, Ltd., priority 2001, dated 2007).

System: person with enlarged prostate
Test: Case report: person with enlarged prostate and frequent urination
Format: in vivo, human
Settings: prescribed for enlarged prostate
Text: Person diagnosed with having an enlarged prostate suffered from frequent-urination problems including increased daily frequency and reduced volume. They had the urge to urinate every two hours and the amount was only a few drops. Their symptoms were attributed to old age. […] They are able to urinate what they consider a normal amount of urine in a steady stream as opposed to the dribbling they experienced prior to taking the 9-herb composition. […] Because they are sleeping better, they have more energy throughout the day.

## CC(C)(C)NC(=O)[C@H]1CC[C@H]2[C@@H]3CC[C@H]4NC(=O)C=C[C@]4(C)[C@H]3CC[C@]12C [PROSCAR]
  urination problem: did not alleviate the urination problem
